From the supplement of paper PMC10307832

Columns and labels:
Assay in all cases: relative viability (nuclei count vs DMSO), 5 days (fraction); higher = more cells survive
EHT 1864 + AZD7762 = compound: C1COCCN1CC2=CC(=O)C(=CO2)OCCCCCSC3=C4C=CC(=CC4=NC=C3)C(F)(F)F [EHT 1864] + NC(=O)Nc1cc(-c2cccc(F)c2)sc1C(=O)N[C@H]1CCCNC1 [AZD7762] (partner 0.2 µM)
Procedure, shortened: (§1)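 Cells from lung cancer lines were seeded into 1536-well plates and, one day later, dosed by pin tool. Treatments were either a single drug or a fixed dose of an anchor drug with five library-drug doses (not always all listed) in √10 steps. After 5 days, nuclei were stained in a one-step fixation (final 0.05% Triton X-100, 1% formaldehyde, 1 ug/ml Hoechst) and counted on 4× images, and relative viability is the treated-to-vehicle nuclei ratio, as the median of duplicate plates.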

EHT 1864 + Palbociclib = compound: C1COCCN1CC2=CC(=O)C(=CO2)OCCCCCSC3=C4C=CC(=CC4=NC=C3)C(F)(F)F [EHT 1864] + CC(=O)c1c(C)c2cnc(Nc3ccc(N4CCNCC4)cn3)nc2n(C2CCCC2)c1=O [Palbociclib] (partner 0.5 µM)
Procedure, shortened: as §1

EHT 1864 + Crizotinib = compound: C1COCCN1CC2=CC(=O)C(=CO2)OCCCCCSC3=C4C=CC(=CC4=NC=C3)C(F)(F)F [EHT 1864] + C[C@@H](Oc1cc(-c2cnn(C3CCNCC3)c2)cnc1N)c1c(Cl)ccc(F)c1Cl [Crizotinib] (partner 1 µM)
Procedure, shortened: as §1

EHT 1864 + Vorinostat = compound: C1COCCN1CC2=CC(=O)C(=CO2)OCCCCCSC3=C4C=CC(=CC4=NC=C3)C(F)(F)F [EHT 1864] + O=C(CCCCCCC(=O)Nc1ccccc1)NO [Vorinostat] (partner 1 µM)
Procedure, shortened: as §1

Cell Line	relative viability (EHT 1864 + AZD7762; first compound 0.04 µM)	relative viability (EHT 1864 + AZD7762; first compound 0.1265 µM)	relative viability (EHT 1864 + AZD7762; first compound 0.4 µM)	relative viability (EHT 1864 + AZD7762; first compound 1.265 µM)	relative viability (EHT 1864 + AZD7762; first compound 4 µM)	relative viability (EHT 1864 + Palbociclib; first compound 0.04 µM)	relative viability (EHT 1864 + Palbociclib; first compound 0.1265 µM)	relative viability (EHT 1864 + Palbociclib; first compound 0.4 µM)	relative viability (EHT 1864 + Palbociclib; first compound 1.265 µM)	relative viability (EHT 1864 + Palbociclib; first compound 4 µM)	relative viability (EHT 1864 + Crizotinib; first compound 0.04 µM)	relative viability (EHT 1864 + Crizotinib; first compound 0.1265 µM)	relative viability (EHT 1864 + Crizotinib; first compound 0.4 µM)	relative viability (EHT 1864 + Crizotinib; first compound 1.265 µM)	relative viability (EHT 1864 + Crizotinib; first compound 4 µM)	relative viability (EHT 1864 + Vorinostat; first compound 0.04 µM)	relative viability (EHT 1864 + Vorinostat; first compound 0.1265 µM)	relative viability (EHT 1864 + Vorinostat; first compound 0.4 µM)	relative viability (EHT 1864 + Vorinostat; first compound 1.265 µM)	relative viability (EHT 1864 + Vorinostat; first compound 4 µM)
NCI-H1355	0.876	0.65	0.725	0.688	0.68	0.411	0.357	0.391	0.389	0.414	1.12	0.875	1.06	1.07	1.03	0.659	0.548	0.633	0.619	0.696
NCI-H1437	1.1	1.1	1.09	1.02	0.889	0.311	0.293	0.309	0.236	0.302	0.87	0.918	0.845	0.838	0.642	0.84	0.866	0.757	0.542	0.479
NCI-H1651	0.396	0.439	0.469	0.482	0.556	0.529	0.501	0.534	0.504	0.522	0.865	0.798	0.826	0.801	0.843	0.55	0.541	0.554	0.561	0.599
NCI-H1666	0.826	0.747	0.915	0.997	1.1	0.644	0.611	0.667	0.583	0.636	0.771	0.867	1.2	0.965	1.01	1.02	0.987	0.899	0.986	1.05
NCI-H1734	0.65	0.427	0.537	0.611	0.618	0.411	0.314	0.337	0.337	0.356	0.67	0.626	0.632	0.723	0.721	0.94	0.532	0.818	0.751	0.837
NCI-H1755	0.438	0.424	0.405	0.402	0.456	0.46	0.437	0.42	0.43	0.42	0.891	0.833	0.794	0.814	0.845	1	0.808	0.748	0.75	0.811
NCI-H1915	0.728	–	0.681	0.711	0.719	0.554	–	0.53	0.503	0.516	0.86	–	0.922	0.87	0.887	0.501	–	0.517	0.478	0.564
NCI-H1944	0.5	–	0.511	0.563	0.665	0.327	–	0.353	0.311	0.332	1.18	–	1.13	1.04	1.15	0.528	–	0.595	0.514	0.661
NCI-H1975	0.733	0.717	0.676	0.642	0.68	0.641	0.647	0.4	0.348	0.552	0.967	0.987	0.946	0.851	0.84	0.726	0.673	0.677	0.654	0.644
NCI-H1993	0.71	–	0.827	0.775	0.83	0.693	–	0.682	0.664	0.741	0.882	0.78	0.751	0.817	0.958	0.896	–	0.912	0.806	0.863
NCI-H2085	0.962	0.645	0.973	0.987	0.942	0.446	0.459	0.456	0.451	0.417	0.71	0.764	0.846	0.762	0.778	0.789	0.577	0.838	0.774	0.804
NCI-H2087	1.25	–	1.2	1.25	1.23	0.266	–	0.223	0.156	0.224	0.872	0.662	0.698	0.737	0.753	0.436	–	0.798	0.727	0.572
NCI-H2126	1.02	0.866	0.95	0.93	0.957	0.338	0.365	0.333	0.336	0.349	1.01	0.938	0.998	0.992	0.988	0.836	0.711	0.735	0.795	0.681
NCI-H2170	0.77	0.764	0.9	0.86	0.963	0.381	0.308	0.408	0.356	0.395	1.15	1.17	1.2	1.18	1.21	0.789	0.692	0.774	0.84	0.94
NCI-H2347	0.776	0.654	0.621	0.727	0.792	0.428	0.382	0.368	0.439	0.364	0.693	0.518	0.715	0.709	0.868	0.544	0.396	0.506	0.65	0.739
NCI-H2405	0.8	0.657	0.728	0.687	0.697	0.536	0.497	0.469	0.5	0.538	0.835	0.809	0.837	0.816	0.918	1.03	0.895	1.06	0.963	0.909
